Experimental data as given in patent US12227510B2, “Crystal form of acid addition salt of furopyrimidine compound” (HANMI PHARM. CO., LTD., priority 2019, dated 2025).
Values after ≈ are worked out from the molar mass of the structure shown. Like-named read-outs stand apart in the source and are kept apart here.

Columns and labels:
[1] = type: physicochemical; settings: for pH of solution: solution of the water solubility test, 20 mg/mL in water
Description: (§1) HPLC analysis was performed for analyzing purity and contents such as a stability test, etc., using an Agilent 1100/1200 series HPLC Systems (Agilent, USA) analyzer, and the conditions used for HPLC were as follows. • Purity and Content Analysis Conditions: Furopyrimidine Compound of Formula 1 • Column: Hydrosphere C18 (YMC), 5 μm (150 mm×4.6 mm) • Column temperature: 30° C. • Detector: UV spectrophotometer • Detection wavelength: 254 nm • Flow rate: 1.0 mL/min • Time of analysis: 35 min • Eluent: NaClO4—NaH2PO4— phosphate buffer solution (pH 2.5±0.1)/CH3CN=65/35(v/v %) 5. Ion Chromatography (IC)
To measure water solubility, each sample of the acid addition salts of the compound of Formula 1 prepared in Examples 1 to 6 was prepared in deionized water under the following conditions, and then each solution was analyzed by HPLC according to content measurement conditions of the compound of Formula 1. The dissolved amounts (LOD: more than 0.001 mg/mL) based on the compound of Formula 1 were measured, and then the values were converted.
In detail, each 100 mg of various forms was added to 5 mL of water, and mixed using a Voltamixer at 20° C. to 25° C., and a filtrate filtered using GH Polypro membrane Acrodisc, PALL (pore size of 0.2 μm) was diluted with a dilution solvent for HPLC.

[2] = Dynamic vapor sorption (DVS) hygroscopicity; type: physicochemical
Description: DVS analysis was performed in a DVS advantage (Surface measurement system, United Kingdom) analyzer at 25° C. with a relative humidity of 0% to 90%. 10 mg of a sample was placed into a wire-mesh vapor sorption balance pan, and then attached to a DVS-advantage dynamic vapor sorption balance via surface measurement systems. Until a stable weight was achieved (99.5% completion of steps), the sample was applied to a ramping profile with a relative humidity (RH) of 10% to 90% with a 10% increase of the sample while maintaining the sample in each step. Upon completion of the sorption cycle, the sample was dried using the same process while maintaining a relative humidity of […]. The changes in the sample weight during the adsorption/desorption cycle (repeated 3 times) were recorded, and the hygroscopicity of the sample was measured.

[3] = Stability of the crystalline form under storage conditions; type: physicochemical; settings: for stability under long-term storage conditions: temperature of 25° C. and relative humidity of 60%; for stability under accelerated conditions: temperature of 40° C. and relative humidity of 75%
Description: as §1

[4] = amorphous compound of Formula 1 as prepared in the reference documents; cited from earlier work
[5] = 25° C., region with a relative humidity of 10% to 90%

| Solubility [1] | water absorption in DVS [2, 5] | stability under long-term storage conditions [3] | stability under accelerated conditions [3] | SMILES | other results |
| --- | --- | --- | --- | --- | --- |
| 0.93 mg/mL (≈ 1980 µM) | about 1% | sufficiently stable | sufficiently stable | C=CC(=O)Nc1cccc(Oc2nc(Nc3ccc(N4CCN(C)CC4)cc3)nc3ccoc23)c1 [Example 5, N-(3-(2-(4-(4-methylpiperazin-1-yl)phenylamino)furo[3,2-d]pyrimidin-4-yloxy)phenyl)acrylamide] | pH of solution ([1]; listed as 1MsOH•1H2O): 6.1 |
| 1.13 mg/mL (≈ 2400 µM) | about 2% | sufficiently stable | sufficiently stable | C=CC(=O)Nc1cccc(Oc2nc(Nc3ccc(N4CCN(C)CC4)cc3)nc3ccoc23)c1 [Example 4, N-(3-(2-(4-(4-methylpiperazin-1-yl)phenylamino)furo[3,2-d]pyrimidin-4-yloxy)phenyl)acrylamide] | pH of solution ([1]; listed as 1MsOH•anhydrous): 6.3 |
| 9.59 mg/mL (≈ 20400 µM) | about 1% | sufficiently stable | sufficiently stable | C=CC(=O)Nc1cccc(Oc2nc(Nc3ccc(N4CCN(C)CC4)cc3)nc3ccoc23)c1 [Example 6, N-(3-(2-(4-(4-methylpiperazin-1-yl)phenylamino)furo[3,2-d]pyrimidin-4-yloxy)phenyl)acrylamide] | solubility compared in words [1]: remarkably high solubility; pH of solution ([1]; listed as 1EsOH anhydrous): 6.3 |
| 0.001 mg/mL | – | – | – | C=CC(=O)Nc1cccc(Oc2nc(Nc3ccc(N4CCN(C)CC4)cc3)nc3ccoc23)c1 [Formula 1 (Free base), N-(3-(2-(4-(4-methylpiperazin-1-yl)phenylamino)furo[3,2-d]pyrimidin-4-yloxy)phenyl)acrylamide] | pH of solution [1]: 7.2~7.3; solubility in water [4]: less than 0.001 mg/mL |

More lines, now with the values behind:

| SMILES | Solubility [1] | water absorption in DVS [2, 5] | stability under long-term storage conditions [3] | stability under accelerated conditions [3] | other results |
| --- | --- | --- | --- | --- | --- |
| C=CC(=O)Nc1cccc(Oc2nc(Nc3ccc(N4CCN(C)CC4)cc3)nc3ccoc23)c1 [Example 3, N-(3-(2-(4-(4-methylpiperazin-1-yl)phenylamino)furo[3,2-d]pyrimidin-4-yloxy)phenyl)acrylamide] | 1.27 mg/mL (≈ 2700 µM) | about 1% | sufficiently stable | sufficiently stable | pH of solution ([1]; listed as 1HCl•anhydrous): 5.9~6.0 |
| C=CC(=O)Nc1cccc(Oc2nc(Nc3ccc(N4CCN(C)CC4)cc3)nc3ccoc23)c1 [Example 1, N-(3-(2-(4-(4-methylpiperazin-1-yl)phenylamino)furo[3,2-d]pyrimidin-4-yloxy)phenyl)acrylamide] | 0.9~1.4 mg/mL | – | sufficiently stable | sufficiently stable | solubility compared in words [1]: higher solubility than the crystalline form of the monohydrochloride; pH of solution ([1]; listed as 2HCl•3H2O): 2.3~2.4; water absorption in DVS ([2]; region with a relative humidity of 0% to 20%): showed water absorption; water absorption in DVS ([2]; region with a relative humidity of 30% or more): very low water absorption; stability under harsh conditions ([3]; printed: temperature of 40° C. and relative humidity of 75%): sufficiently stable |
| C=CC(=O)Nc1cccc(Oc2nc(Nc3ccc(N4CCN(C)CC4)cc3)nc3ccoc23)c1 [Example 2, N-(3-(2-(4-(4-methylpiperazin-1-yl)phenylamino)furo[3,2-d]pyrimidin-4-yloxy)phenyl)acrylamide] | 0.3~0.7 mg/mL | about 0.8% | sufficiently stable | sufficiently stable | pH of solution ([1]; listed as 1HCl•2H2O): 5.8~5.9 |
